Measured values published in patent US20230192772A1, “ANTIMICROBIAL PEPTIDES AND USES THEREOF” (SORBONNE UNIVERSITE, priority 2016, published 2023).
Ends that are not written are not given here.

Assays:
[1] = tested on: Klebsiella oxytoca CIP 7932; assay: MIC/MBC, growth inhibition in liquid medium (Example 2); format: cell-based; conditions: Table 2
Source text: (§1) Escherichia coli (ATCC 8739, ATCC ML35p and P7 BLSE), Pseudomonas aeruginosa (ATCC 9027 and ATCC 27853), Klebsiella oxytoca (CIP 7932), Klebsiella pneumoniae (CIP 52.211), Salmonella enterica (CIP 8297), Yersinia ruckeri (ATCC 29473), Vibrio parahemolyticus (IFREMER 01 01/252), Staphylococcus aureus (ATCC 6538, ST 1065 and MRSA), Staphylococcus epidermidis (BM 3302), Listeria monocytogenes (SOR 100), Enterococcus faecalis (CIP A186, CIP 103015)), Kocuria rhizophila (ATCC 9341), Lactococcus garviae (ATCC 43921), Bacillus subtilis (CIP 52.65).
(§2) For each strain, a 5 ml pre-culture in LB medium is prepared by inoculating a colony of the bacterial strain of interest. The pre-culture is incubated at 37° C. under stirring overnight. The culture is subcultured (30 µL) in 5 mL. The culture concentration is evaluated by measuring the optical density at 620 nm. The concentration is adjusted by dilution so as to obtain a suspension with an OD of 0.05 at 620 nm.
(§3) The MIC is determined using a growth inhibition test in liquid medium. The MIC is defined as being the lowest peptide concentration capable of inhibiting the bacterial strain tested, after incubation for 18 h at 37° C. The test was carried out in a sterile microtitration plate containing 96 wells. A series of increasing concentrations of each peptide (0.2 to 100 µM) was prepared beforehand in sterile MilliQ water. In each well, 10 µL of peptide was incubated with 90 µL of bacterial suspension (10^7 cfu/mL) in yeast extract-free LB medium. The microplate was incubated at 37° C. for 18 h. The bacterial growth was evaluated by measuring the OD at 620 nm using a plate reader.
(§4) The negative growth inhibition control was obtained by replacing the solution containing the peptide by sterile MilliQ water. The positive control suitable for completely inhibiting the growth of the bacterial strains was obtained by replacing the solution containing the peptide by 10 µL of formaldehyde.
(§5) The results are interpreted by calculating the percentage of bacterial growth in each well according to the formula:
(§6) %Growth = (OD well - OD of T0)/(OD of T100-OD of T0)*100 where
(§7) • OD of T100 = OD of growth control (bacterial suspension free from sample under test, 100% growth), • OD of T0 = OD of sterility control (culture medium + bacterium + 10 µL formaldehyde, 0% growth) and • OD well = OD of well for which it is sought to calculate the growth percentage (bacterial suspension + peptide under test).
(§8) The MBC is defined as being the minimum peptide concentration leaving no surviving bacteria of the inoculum after incubation at 37° C. for 24 hours. This test consists of smearing the contents of the well wherein the peptide has inhibited bacterial growth on a Petri dish (LB agar), followed by incubation for 24 h at 37° C.

[2] = tested on: Kocuria rhizophila ATCC 9341; assay: as above; format: cell-based; conditions: Table 2
Source text: as §1, §2, §3, §4, §5, §6, §7, §8

[3] = tested on: Staphylococcus aureus ATCC 6538; assay: as above; format: cell-based; conditions: Table 2
Source text: as §1, §2, §3, §4, §5, §6, §7, §8

[4] = tested on: Escherichia coli ATCC 8739; assay: as above; format: cell-based; conditions: Table 2
Source text: as §1, §2, §3, §4, §5, §6, §7, §8

[5] = tested on: Klebsiella pneumoniae CIP 5211; assay: as above; format: cell-based; conditions: Table 2
Source text: as §1, §2, §3, §4, §5, §6, §7, §8

[6] = tested on: Bacillus subtilis CIP 52.65; assay: as above; format: cell-based; conditions: Table 2
Source text: as §1, §2, §3, §4, §5, §6, §7, §8

Escherichia coli ML35p = assay: as above; format: cell-based; conditions: Table 2
Source text: as §1, §2, §3, §4, §5, §6, §7, §8

[7] = tested on: Pseudomonas aeruginosa ATCC 9027; assay: as above; format: cell-based; conditions: Table 2
Source text: as §1, §2, §3, §4, §5, §6, §7, §8

[8] = tested on: Staphylococcus aureus ST 1065; assay: as above; format: cell-based; conditions: Table 2
Source text: as §1, §2, §3, §4, §5, §6, §7, §8

[9] = tested on: Staphylococcus epidermidis BM 3302; assay: as above; format: cell-based; conditions: Table 2
Source text: as §1, §2, §3, §4, §5, §6, §7, §8

[10] = tested on: psoriatic lesions and angiogenesis of skin; assay: Imiquimod-induced psoriasis model; format: in vivo, balb/c mice; conditions: topical, 10 µg; no Imiquimod treatment
Experimental: The DA2N and DA2NEQ peptides were tested in an Imiquimod-induced psoriasis model described by Van der Fits (Van der Fits et al. 2009. Journal of immunology. 182(9):5836-5845) on female balb/c mice, aged 7 to 8 weeks.
31 mg of commercial cream containing 5% Imiquimod (Aldara, 3 M Pharmaceuticals) is applied topically on about 2.5 cm of the previously shaven ventral region of the mice for 6 days. The first psoriatic lesions appear on the 3rd day. The peptides resuspended in the cream are applied topically or intravenously (10 µg) for the first 3 days of Imiquimod treatment. Mice with no Imiquimod treatment and/or with no peptide application were used as controls. On the 6th day, the mice are sacrificed and the skin sampled is analysed by microscopy (skin lesions and angiogenesis).

LC50 on red blood cells = format: cell-based; conditions: C57BL6; Mouse red blood cells
Experimental: The mouse red blood cells are obtained from C57BL6 mouse bone marrow.
The peptides are incubated at 37° C., 5% CO2 in the presence of 500,000 red blood cells in RPMI medium at varied concentrations and at varied times. Peptide-free cells are used as the negative control and cells incubated for 5 min at 50° C. or in the presence of DMSO (30%) are used as the positive control. The LC50 is then calculated as being the concentration of DA2N and DA2NEQ peptides inducing the death of 50% of the red blood cells.

| Substance | MBC [1] | MIC [1] | MBC [2] | MIC [2] | MBC [3] | MIC [3] | MBC [4] | MIC [4] | MIC [5] | MBC [6] | MIC [6] | MBC (Escherichia coli ML35p) | MIC (Escherichia coli ML35p) | MBC [7] | MIC [7] | MBC [8] | MIC [8] | MBC [9] | MIC [9] | angiogenesis of healthy skin [10] | also measured |
| --- | --- | --- | --- | --- | --- | --- | --- | --- | --- | --- | --- | --- | --- | --- | --- | --- | --- | --- | --- | --- | --- |
| ALWKTLLKKVGKVAGKAVLNAVTNMANQN-OH [DA2N] | 6.25 µM | 3.12 µM | 3.12 µM | 3.12 µM | 6.25 µM | 6.25 µM | 3.12 µM | 3.12 µM | 3.12 µM | 6.25 µM | 6.25 µM | 6.25 µM | 3.12 µM | 12.5 µM | 12.5 µM | 12.5 µM | 12.5 µM | 12.5 µM | 1 µM | no effect on the angiogenesis of healthy skin | effect on healthy skin [10]: no effect on healthy skin; CC50 (LC50 on red blood cells): 750 µM |
| ALWKTLLKKVGKVAGKAVLNAVTNMANQNEQ [DA2NEQ, ALWKTLLKKVGKVAGKAVLNAVTNMANQNEQOH] | >100 µM | 12.5 µM | 6.25 µM | 6.25 µM | 12.5 µM | 12.5 µM | 6.25 µM | 3.12 µM | 3.12 µM | 6.25 µM | 6.25 µM | 6.25 µM | 6.25 µM | 25 µM | 12.5 µM | >100 µM | >100 µM | >100 µM | >100 µM | no effect on the angiogenesis of healthy skin | effect on healthy skin [10]: no effect on healthy skin; CC50 (LC50 on red blood cells): 750 µM |
